# According to paper PMC6986724, “Crystal structure of PMGL2 esterase from the hormone-sensitive lipase family with GCSAG motif around the catalytic serine” (PLoS ONE, 2020):
# Target: T1, PMGL2 (uncultured bacterium, UniProt Z9SFY5SHV8, S173T/C202S, form not given)
# T1 construct: recombinant, cloned into pET32a, poly-His tag; homodimer; GCSAG motif 172-176, catalytic Ser174, Asp272, His302; 319 residues visible in the mutant crystal
# T1 sequence (Z9SFY5SHV8 1-343 S173T/C202S): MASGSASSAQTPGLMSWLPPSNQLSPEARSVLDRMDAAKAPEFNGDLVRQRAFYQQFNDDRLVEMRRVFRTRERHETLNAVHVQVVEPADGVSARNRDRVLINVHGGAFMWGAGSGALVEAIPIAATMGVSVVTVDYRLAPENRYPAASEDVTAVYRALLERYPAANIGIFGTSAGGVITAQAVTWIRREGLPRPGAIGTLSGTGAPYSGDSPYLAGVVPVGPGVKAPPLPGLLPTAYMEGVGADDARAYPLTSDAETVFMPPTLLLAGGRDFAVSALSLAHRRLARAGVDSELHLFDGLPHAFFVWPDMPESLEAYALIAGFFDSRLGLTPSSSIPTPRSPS
# Assay: esterase kinetics
# Format: biochemical
# Conditions: 25 °C
compound,measurement,value
CCCC(=O)Oc1ccc([N+](=O)[O-])cc1 [p-nitrophenyl butyrate],Km,450 µM
